Laboratory results as given in patent publication US9273033B2, “Substituted pyridone derivatives as PDE10 inhibitors” (Merck Sharp & Dohme Corp., priority 2012, dated 2016).

Target: human PDE10A2 (Homo sapiens (Human), UniProt Q9Y233)
Assay: PDE10 fluorescence polarization (IMAP FP) inhibition assay
Assay type: biochemical
Conditions: human PDE10A2, FAM-labeled cAMP substrate, read-out: PDE10A Ki
How it was run: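 Cytoplasmic lysate of AD293 cells transiently expressing human PDE10A2 (diluted to ~20% substrate conversion) incubated 30 min at room temperature with 50 nM FAM-cAMP in Tris pH 7.2 buffer with MgCl2, DTT. Activity read by IMAP fluorescence polarization. 0% inhibition set with 1% DMSO, 100% with reference PDE10 inhibitor.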

human PDE10A2, sequence (Q9Y233 267-1055): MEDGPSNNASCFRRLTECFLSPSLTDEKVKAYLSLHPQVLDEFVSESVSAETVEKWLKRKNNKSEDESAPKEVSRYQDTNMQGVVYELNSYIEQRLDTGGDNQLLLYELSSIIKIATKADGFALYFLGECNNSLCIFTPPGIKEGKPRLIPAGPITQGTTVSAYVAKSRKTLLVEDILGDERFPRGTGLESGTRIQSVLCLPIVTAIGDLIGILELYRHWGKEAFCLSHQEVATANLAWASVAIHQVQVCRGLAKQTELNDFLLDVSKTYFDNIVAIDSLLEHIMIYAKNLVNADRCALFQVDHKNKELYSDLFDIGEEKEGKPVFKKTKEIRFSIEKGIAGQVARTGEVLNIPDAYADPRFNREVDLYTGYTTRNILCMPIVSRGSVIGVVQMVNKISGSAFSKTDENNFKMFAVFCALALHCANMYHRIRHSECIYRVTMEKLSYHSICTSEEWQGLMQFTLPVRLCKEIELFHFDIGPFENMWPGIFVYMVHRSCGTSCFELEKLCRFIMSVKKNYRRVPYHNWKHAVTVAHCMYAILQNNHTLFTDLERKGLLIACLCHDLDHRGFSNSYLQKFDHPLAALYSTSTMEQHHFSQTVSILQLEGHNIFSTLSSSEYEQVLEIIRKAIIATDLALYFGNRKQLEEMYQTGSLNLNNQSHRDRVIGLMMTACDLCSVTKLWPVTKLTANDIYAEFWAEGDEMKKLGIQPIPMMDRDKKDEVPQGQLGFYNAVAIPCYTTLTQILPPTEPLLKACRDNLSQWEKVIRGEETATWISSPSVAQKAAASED

| SMILES | Ki [nM] |
| --- | --- |
| COc1ccc([C@H]2C[C@@H]2COc2nc(C)ncc2-c2ccn(C)c(=O)c2C#N)nc1 [Example 104, 4-(4-(((1S,2S)-2-(5-methoxypyridin-2-yl)cyclopropyl)methoxy)-2-methylpyrimidin-5-yl)-1-methyl-2-oxo-1,2-dihydropyridine-3-carbonitrile] | 8.16 |
| Cc1ccc([C@H]2C[C@@H]2COc2nc(C)ncc2-c2ccn(CC(F)(F)F)c(=O)c2)nc1 [Example 105, 4-(2-methyl-4-(((1S,2S)-2-(5-methylpyridin-2-yl)cyclopropyl)methoxy)pyrimidin-5-yl)-1-(2,2,2-trifluoroethyl)pyridin-2(1H)-one] | 0.74 |
| Cc1ccc([C@H]2C[C@@H]2COc2nc(C)ncc2-c2ccn(CC(F)F)c(=O)c2)nc1 [Example 106, 1-(2,2-difluoroethyl)-4-(2-methyl-4-(((1S,2S)-2-(5-methylpyridin-2-yl)cyclopropyl)methoxy)pyrimidin-5-yl)pyridin-2(1H)-one] | 1.81 |
| Cc1ncc(-c2ccn(C)c(=O)c2)c(OC[C@H]2C[C@@H]2c2ccc(Cl)cn2)n1 [Example 107, 4-(4-(((1S,2S)-2-(5-chloropyridin-2-yl)cyclopropyl)methoxy)-2-methylpyrimidin-5-yl)-1-methylpyridin-2(1H)-one] | 14.7 |
| CCOC(=O)c1cn(C)c(=O)cc1-c1cnc(C)nc1OC[C@H]1C[C@@H]1c1ccc(OC)cn1 [Example 108, ethyl 4-(4-(((1S,2S)-2-(5-methoxypyridin-2-yl)cyclopropyl)methoxy)-2-methylpyrimidin-5-yl)-1-methyl-6-oxo-1,6-dihydropyridine-3-carboxylate] | 100 |

Results, then the compound that gave them:

| Ki [nM] | SMILES |
| --- | --- |
| 0.441 | COc1ccc([C@H]2C[C@@H]2COc2nc(C)ncc2-c2ccn(CC#N)c(=O)c2)nc1 [Example 111, 2-(4-(4-(((1S,2S)-2-(5-methoxypyridin-2-yl)cyclopropyl)methoxy)-2-methylpyrimidin-5-yl)-2-oxopyridin-1(2H)-yl)acetonitrile] |
| 0.944 | COc1ccc([C@H]2C[C@@H]2COc2nc(C)ncc2-c2ccn(CCC#N)c(=O)c2)nc1 [Example 112, 3-(4-(4-(((1S,2S)-2-(5-methoxypyridin-2-yl)cyclopropyl)methoxy)-2-methylpyrimidin-5-yl)-2-oxopyridin-1(2H)-yl)propanenitrile] |
| 0.8 | COc1ccc([C@H]2C[C@@H]2COc2nc(C)ncc2-c2cc(C)n(C)c(=O)c2)nc1 [Example 113, 4-(4-(((1S,2S)-2-(5-methoxypyridin-2-yl)cyclopropyl)methoxy)-2-methylpyrimidin-5-yl)-1,6-dimethylpyridin-2(1H)-one] |
| 0.378 | Cc1ncc(-c2ccn(C)c(=O)c2)c(OC[C@H]2C[C@@H]2c2ccc3c(n2)CCC3)n1 [Example 114, 4-(4-(((1S,2S)-2-(6,7-dihydro-5H-cyclopenta[b]pyridin-2-yl)cyclopropyl)methoxy)-2-methylpyrimidin-5-yl)-1-methylpyridin-2(1H)-one] |
| 18 | COc1ccc([C@H]2C[C@@H]2COc2nc(C)ncc2-c2ccn(C)c(=O)c2SC)nc1 [Example 115, 4-(4-(((1S,2S)-2-(5-methoxypyridin-2-yl)cyclopropyl)methoxy)-2-methylpyrimidin-5-yl)-1-methyl-3-(methylthio)pyridin-2(1H)-one] |
| 1.83 | Cc1ccc([C@H]2C[C@@H]2COc2nc(C)ncc2-c2ccn(C(F)F)c(=O)c2)nc1 [Example 116, 1-(difluoromethyl)-4-(2-methyl-4-(((1S,2S)-2-(5-methylpyridin-2-yl)cyclopropyl)methoxy)pyrimidin-5-yl)pyridin-2(1H)-one] |
| 1.93 | COc1ccc([C@H]2C[C@@H]2COc2nc(C)ncc2-c2ccn(C(F)F)c(=O)c2)nc1 [Example 117, 1-(difluoromethyl)-4-(4-(((1S,2S)-2-(5-methoxypyridin-2-yl)cyclopropyl)methoxy)-2-methylpyrimidin-5-yl)pyridin-2(1H)-one] |
